Measured values published in patent publication US8426448B2, “1,5-diphenyl-pyrrolidin-2-one compounds as CB-1 ligands” (Eli Lilly and Company, priority 2008, dated 2013).
Counter-ions that a name gives are not always drawn.

What was measured:
hCB-1 = hCB-1 (Homo sapiens, UniProt P21554); assay: hCB1-CHO antagonist mode SPA GTP-γ-35S binding assay; format: biochemical; parameters: purchased Applied Cell Sciences, Rockville, Md; host or cells: CHO cell membranes; conditions: antagonist mode vs methanandamide; read-out: hCB-1 SPA GTPγS CHO Membrane Antagonist Kb
Sequence of hCB-1 (P21554 whole entry): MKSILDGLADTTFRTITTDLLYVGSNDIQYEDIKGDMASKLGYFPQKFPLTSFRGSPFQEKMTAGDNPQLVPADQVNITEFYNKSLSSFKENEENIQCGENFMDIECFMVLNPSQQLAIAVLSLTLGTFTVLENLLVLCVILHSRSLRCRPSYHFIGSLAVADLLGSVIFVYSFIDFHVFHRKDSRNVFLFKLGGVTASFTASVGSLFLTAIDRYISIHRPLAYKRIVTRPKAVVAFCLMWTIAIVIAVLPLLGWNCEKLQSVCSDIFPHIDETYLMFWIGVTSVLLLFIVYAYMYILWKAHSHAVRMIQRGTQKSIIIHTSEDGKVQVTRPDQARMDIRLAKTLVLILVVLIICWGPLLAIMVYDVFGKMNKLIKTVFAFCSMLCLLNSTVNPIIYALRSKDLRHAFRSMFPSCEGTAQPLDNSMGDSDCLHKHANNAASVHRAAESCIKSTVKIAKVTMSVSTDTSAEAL
Description: Compounds of the present invention may be tested for functional activity at the CB-1 and CB-2 receptors in both agonist and antagonist modes using SPA (Scintillation Proximity Assay) based GTP-γ-^35S binding assays. All assay components are prepared in assay buffer (20 mM HEPES, 100 mM NaCl, 5 mM MgCl2, pH 7.4) at room temperature. Semi-log dilutions of test compound are prepared in assay buffer containing BSA (0.125% final conc.) for the agonist mode assays. For the antagonist mode assays, test compounds are prepared in the same manner but also include an 80% efficacious dose of a full agonist (methanandamide). GTP-γ^35S binding for the antagonist assay may be measured in a 96 well format using a modification of an antibody capture technique previously described. (DeLapp, N W, et al. (1999) J Pharmacol Exp Ther 289:946-955.) The CB-2 receptor agonist activity may be measured using a similar method using hCB2-Sf9 membranes. The CB-1 receptor agonist activity may be measured using a whole membrane capture technique using hCB1-CHO membranes. All incubations are done at room temperature.
hCB1-CHO or rCB1-CHO membranes (Applied Cell Sciences, Rockville, Md.) and GDP (1 μM final) are added to ice cold assay buffer and homogenized. […] Plates are then centrifuged at 700×g for 10 min. and the radioactivity counted.
Data are analyzed as follows: Background is subtracted from all wells. […] Percent antagonist inhibition is calculated by first normalizing the data to the signal generated by a saturating concentration of the full agonist (methanandamide). Then the data are analyzed using a 4-parameter logistic reduced fit (Activity Base™ and XLFit3™ from IDBS, Emeryville, Calif.). Kb values are determined using a modification of the Cheng-Prusoff relationship: Kb=IC50/(1+[agonist]/EC50), where “IC50” is determined from a four parameter fit of displacement curves, “[agonist]” is the agonist challenge concentration (nM), and “EC50” is determined from a four parameter fit of a full agonist concentration response curve (Cheng and Prusoff 1973). […]

Dog oral bioavailability = format: in vivo; conditions: plasma; fasted female beagle dog; IV 0.25 mg/kg, PO 1 mg/kg; mean±s.d, n=2; based on AUC0-∞
Description: Cohorts of three or four 250-450 gram male Sprague-Dawley rats or approximately 10 kg Beagle dogs (female or male) are used. […] Dogs are administered i.v. by cannulated cephalic vein and blood collections are by jugular vein. Animals are first dosed at 0.25 mg/kg i.v. and blood samples (0.2 mL) are then collected using EDTA as an anticoagulant at 0.0830, 0.25, 0.50, 1, 2, 4, 8, 12, 24, 48, 72, 96, and 120 hours. Next after at least two days and after 18-24 hours fasting, the animals are dosed at 1.0 mg/kg by oral gavage. During the course of a study the total of blood (ml) collected is not to exceed 1% of total body weight in grams. Should larger blood volumes be required, the sampled blood volume is replace with heparinized whole blood from a donor animal. When using a cross-over study design, rats receive a volume of heparinized whole blood following the final sample of each study day approximately equal to that removed during study.
Compound plasma concentrations are measured by LC/MS/MS assays. Data are then analyzed using standard non-compartmental pharmacokinetic analysis. Oral bioavailability is calculated as: (AUC0-infinity,oral/AUC0-infinity,i.v.)×(Dose,i.v./Dose,oral)×100%

- Kb (hCB-1): 0.464 nM
- bioavailability (Dog oral bioavailability): 32 ± 18%
SMILES: CC(C)(N[C@@H]1C[C@H](c2cccc(C(F)(F)F)c2)N(c2ccc(OC(F)(F)F)cc2)C1=O)c1cccc(C(F)(F)F)n1 [28 HCl salt, (3R,5R)-3-[1-methyl-1-(6-trifluoromethyl-pyridin-2-yl)-ethylamino]-1-(4-trifluoromethoxy-phenyl)-5-(3-trifluoromethyl-phenyl)-pyrrolidin-2-one]
